From article PMC11009956, “Initial Primer Synthesis of a DNA Primase Monitored by Real-Time NMR Spectroscopy” (Journal of the American Chemical Society, 2024) come the findings set out here.

The target of data set [1] is T1, functional pRN1 primase (Saccharolobus islandicus, UniProt Q54324).
T1 construct: primase part (catalytic domain plus HBD), residues 40-370, monomeric, expressed in E. coli BL21(DE3) Codon+, Ni2+ IMAC purified (tag not described)
As to the kind of experiment: […] CP-MAS solid-state NMR; 1H-detected hNH NMR. In kind it is biochemical. The conditions noted are these: formed in situ from ATP^N and dGTP^C on primase-DNA complex; triphosphate remains bound to HBD.

In data set [2] the target is T1, functional pRN1 primase. As to the kind of experiment: time-resolved solution NMR of dinucleotide formation. The conditions noted are these: primase-DNA complex. In kind it is biochemical.
Data set [3] addresses T2, helix-bundle domain (HBD) of pRN1 primase (Saccharolobus islandicus, UniProt Q54324).
T2 construct: helix-bundle domain, residues 256-370, expressed in E. coli BL21(DE3) Codon+, Ni2+ IMAC purified (tag not described)
Description: 1H-15N HSQC NMR titration. The class given is binding. The conditions noted are these: 10 mM MgCl2, pH 7.0, 298 K.

For data set [4], the target named is T2, helix-bundle domain (HBD) of pRN1 primase. Description: 1H-15N HSQC NMR. The class given is binding. The conditions noted are these: HBD-DNA complex.
Data set [5] has as its target T1, functional pRN1 primase. As to the kind of experiment: […] CP-MAS solid-state NMR; 1H-15N HSQC NMR. The class given is biochemical. The conditions noted are these: primase-DNA complex with dGTP^C; 10 mM MgCl2, pH 7.0; slow substrate.
In data set [6] the target is T3, catalytic domain of pRN1 primase (Saccharolobus islandicus, UniProt Q54324).
T3 construct: catalytic domain, residues 40-248, expressed in E. coli BL21(DE3) Codon+, Ni2+ IMAC purified (tag not described)
Description: 1H-15N HSQC NMR titration. The class given is binding. As to conditions: free catalytic domain, no DNA; 10 mM MgCl2, pH 7.0, 298 K; near active site (V148, S150).

The target of data set [7] is T4, functional pRN1 primase (Saccharolobus islandicus, UniProt Q54324, H145A).
T4 construct: primase part (catalytic domain plus HBD), residues 40-370, monomeric, expressed in E. coli BL21(DE3) Codon+, Ni2+ IMAC purified (tag not described)
As to the kind of experiment: […] CP-MAS solid-state NMR. As to conditions: catalytically inactive mutant; primase-DNA complex with ATP^N; 10 mM MgCl2, pH 7.0. In kind it is binding.

Data set [8] has as its target T1, functional pRN1 primase. As to the kind of experiment: […] CP-MAS solid-state NMR. In kind it is biochemical. As to conditions: primase-DNA complex with ATP^N; 10 mM MgCl2, pH 7.0, 281 K; bound by HBD, slow substrate.
Data set [9] addresses T5, pRN1 primase helix-bundle domain (HBD) (Sulfolobus islandicus (plasmid pRN1), UniProt Q54324 256-370).
T5 sequence: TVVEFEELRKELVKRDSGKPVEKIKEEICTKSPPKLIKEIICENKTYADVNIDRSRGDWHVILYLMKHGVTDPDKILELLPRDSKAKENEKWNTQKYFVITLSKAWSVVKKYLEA
As to the kind of experiment: NMR (1H-15N HSQC); ATP + dGTP, 10 mM Mg2+, 298 K; HBD titrations: 25 mM sodium phosphate pH 7.0, 75 mM NaCl, 10 mM MgCl2, 298 K, 0.1 mM HBD, HBD:DNA 1:1.1; solid-state NMR on sedimented complex at 278-309 K. As to conditions: protein: recombinant; single strand.

The target in a further data set is T6, pRN1 primase H145A (Sulfolobus islandicus (plasmid pRN1), UniProt Q54324 40-370, H145A).
T6 sequence: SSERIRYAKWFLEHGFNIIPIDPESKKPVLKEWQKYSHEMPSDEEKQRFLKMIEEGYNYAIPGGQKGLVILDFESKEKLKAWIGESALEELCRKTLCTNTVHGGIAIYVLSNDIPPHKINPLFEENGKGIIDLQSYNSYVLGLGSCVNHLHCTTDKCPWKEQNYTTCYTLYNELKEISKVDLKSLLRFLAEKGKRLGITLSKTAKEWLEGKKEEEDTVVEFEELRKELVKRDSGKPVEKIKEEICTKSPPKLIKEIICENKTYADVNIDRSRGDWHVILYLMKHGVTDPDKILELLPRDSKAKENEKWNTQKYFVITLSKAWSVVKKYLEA
Description: solid-state NMR (31P CP-MAS, hNH); ATPN + dGTPC, Mg2+; HBD titrations: 25 mM sodium phosphate pH 7.0, 75 mM NaCl, 10 mM MgCl2, 298 K, 0.1 mM HBD, HBD:DNA 1:1.1; solid-state NMR on sedimented complex at 278-309 K. The conditions noted are these: protein: recombinant; single strand.

The target of data set [10] is T7, pRN1 primase (functional primase) (Sulfolobus islandicus (plasmid pRN1), UniProt Q54324 40-370).
T7 sequence: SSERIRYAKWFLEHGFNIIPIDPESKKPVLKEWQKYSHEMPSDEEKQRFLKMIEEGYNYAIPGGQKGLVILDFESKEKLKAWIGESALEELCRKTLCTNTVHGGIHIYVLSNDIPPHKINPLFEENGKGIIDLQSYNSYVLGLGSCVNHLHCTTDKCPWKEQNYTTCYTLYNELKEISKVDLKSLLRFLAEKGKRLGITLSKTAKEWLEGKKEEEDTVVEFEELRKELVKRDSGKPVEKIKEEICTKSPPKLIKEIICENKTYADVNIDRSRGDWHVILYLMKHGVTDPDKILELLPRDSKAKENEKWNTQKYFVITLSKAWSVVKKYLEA
Description: NMR (1H-15N HSQC; 31P CP-MAS); ATPC + dGTPC; HBD titrations: 25 mM sodium phosphate pH 7.0, 75 mM NaCl, 10 mM MgCl2, 298 K, 0.1 mM HBD, HBD:DNA 1:1.1; solid-state NMR on sedimented complex at 278-309 K. As to conditions: protein: recombinant; single strand.

In the case of `Nc1nc2c(ncn2[C@H]2C[C@H](O)[C@@H](COP(=O)(O)O[C@H]3[C@@H](O)[C@H](n4cnc5c(N)ncnc54)O[C@@H]3COP(=O)(O)OP(=O)(O)NP(=O)(O)O)O2)c(=O)[nH]1`, the “31P CP-MAS solid-state NMR; 1H-detected hNH NMR” value at functional pRN1 primase [1] was “We attribute this initial increase to dinucleotide formation and subsequent binding to pRN1 primase”. On to `Nc1ncnc2c1ncn2[C@@H]1O[C@H](COP(=O)(O)OP(=O)(O)OP(=O)(O)O)[C@@H](O)[C@H]1O` [ATP], for which the “time-resolved solution NMR of dinucleotide formation” value at functional pRN1 primase [2] (co-substrate dGTP) is listed as “dinucleotide formation with the cognate NTPs was terminated within several minutes”. Also, the “1H-15N HSQC NMR titration” value in data set [3] (HBD-DNA complex, two ATP bound) is “The data reveal that HBD binds one ATP and one dGTP”.

On to `Nc1ncnc2c1ncn2[C@@H]1O[C@H](COP(=O)(O)OP(=O)(O)CP(=O)(O)O)[C@@H](O)[C@H]1O` [ATP^C], for which the “1H-15N HSQC NMR” value in data set [4] (added together with dGTP^C) was “both ATP^C and dGTP^C were rapidly added to the HBD-DNA^CT complex”. The “31P CP-MAS solid-state NMR; 1H-15N HSQC NMR” value at functional pRN1 primase [5] was “indeed showing the bound dGTP^C and ATP^C as well as the DNA”. Take `Nc1nc2c(ncn2[C@@H]2O[C@H](COP(=O)(O)OP(=O)(O)OP(=O)(O)O)[C@@H](O)[C@H]2O)c(=O)[nH]1` [GTP]: the “1H-15N HSQC NMR titration” value in [3] (HBD-DNA complex with ATP) is recorded as “it could bind to the HBD domain in the same manner as for the dGTP substrate”. For the molecule `Nc1ncnc2c1ncn2[C@H]1C[C@H](O)[C@@H](COP(=O)(O)OP(=O)(O)OP(=O)(O)O)O1` [dATP], the “1H-15N HSQC NMR titration” value in data set [6] is “addition of dATP to the catalytic domain resulted in visible CSPs of V148 and S150”.

As to `Nc1nc2c(ncn2[C@H]2C[C@H](O)[C@@H](COP(=O)(O)OP(=O)(O)OP(=O)(O)O)O2)c(=O)[nH]1` [dGTP], on functional pRN1 primase [2] (co-substrate ATP), the “time-resolved solution NMR of dinucleotide formation” value is “active primase bound to DNA^CT and the cognate NTPs (ATP and dGTP)”. In addition, the “1H-15N HSQC NMR titration” value in data set [3] (HBD-DNA complex with ATP, displaces one ATP) is recorded as “titration of dGTP in a solution of HBD-DNA^CT-2ATP led to the substitution of one ATP”.

For the molecule `Nc1nc2c(ncn2[C@H]2C[C@H](O)[C@@H](COP(=O)(O)OP(=O)(O)CP(=O)(O)O)O2)c(=O)[nH]1` [dGTP^C], the “31P CP-MAS solid-state NMR” value was “wt primase and the mutant H145A bound to DNA^CT, ATP^N and dGTP^C” on functional pRN1 primase [7]; “The isolated resonances of bound dGTP^C decrease in the solid state” at functional pRN1 primase [8]. In addition, in [4] (added together with ATP^C), the “1H-15N HSQC NMR” value was “both ATP^C and dGTP^C were rapidly added to the HBD-DNA^CT complex”. In the case of CTGTGCTCA (ssDNA) [DNACT (GTG-motif template)], the binding result (in data set [9]; with pRN1 primase H145A; in data set [10]) was “binds” each time.
